How the values were obtained:
Capivasertib = compound: C1CN(CCC1(C(=O)N[C@@H](CCO)C2=CC=C(C=C2)Cl)N)C3=NC=NC4=C3C=CN4 [Capivasertib]
Summary of the method: (§1)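 Cancer cell lines were seeded in 1536-well plates in 7.5 μl DMEM/F12 or RPMI with 10% FBS, held 24 hours at 37°C and 5% CO2, then dosed for 72 hours (final DMSO typically 0.2%). Viability was read by CellTiter-Glo 2.0 luminescence and scaled between blank-well and DMSO-well means. The single-agent IC50 comes from dose responses fitted to a two-parameter logistic curve with a non-linear mixed effects model.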

AZD1775 = compound: C=CCn1c(=O)c2cnc(Nc3ccc(N4CCN(C)CC4)cc3)nc2n1-c1cccc(C(C)(C)O)n1 [AZD1775]; conditions: max 3 µM
Summary of the method: as §1

AZD0156 = compound: CN(C)CCCOc1ccc(-c2ccc3ncc4c(c3c2)n(C2CCOCC2)c(=O)n4C)cn1 [AZD0156]; conditions: max 3 µM
Summary of the method: as §1

Olaparib = compound: O=C(c1cc(Cc2n[nH]c(=O)c3ccccc23)ccc1F)N1CCN(C(=O)C2CC2)CC1 [Olaparib]
Summary of the method: as §1

Trametinib = compound: CC(=O)Nc1cccc(-n2c(=O)n(C3CC3)c(=O)c3c(Nc4ccc(I)cc4F)n(C)c(=O)c(C)c32)c1 [Trametinib]; conditions: max 1 µM
Summary of the method: as §1

Palbociclib = compound: CC(=O)c1c(C)c2cnc(Nc3ccc(N4CCNCC4)cn3)nc2n(C2CCCC2)c1=O [Palbociclib]; conditions: max 10 µM
Summary of the method: as §1

AZD1390 = compound: CC(C)n1c(=O)n(C)c2cnc3cc(F)c(-c4ccc(OCCCN5CCCCC5)nc4)cc3c21 [AZD1390]; conditions: max 0.3 µM
Summary of the method: as §1

Venetoclax = compound: CC1(C)CCC(CN2CCN(c3ccc(C(=O)NS(=O)(=O)c4ccc(NCC5CCOCC5)c([N+](=O)[O-])c4)c(Oc4cnc5[nH]ccc5c4)c3)CC2)=C(c2ccc(Cl)cc2)C1 [Venetoclax]; conditions: max 1 µM
Summary of the method: as §1

Dasatinib = compound: CC1=C(C(=CC=C1)Cl)NC(=O)C2=CN=C(S2)NC3=CC(=NC(=N3)C)N4CCN(CC4)CCO [Dasatinib]; conditions: max 2 µM
Summary of the method: as §1

SG3199 = compound: CC1=CN2[C@@H](C1)C=NC3=CC(=C(C=C3C2=O)OC)OCCCCCOC4=C(C=C5C(=C4)N=C[C@@H]6CC(=CN6C5=O)C)OC [SG3199]; conditions: max 0.001 µM
Summary of the method: as §1

AZD2811 = compound: CCN(CCO)CCCOc1ccc2c(Nc3cc(CC(=O)Nc4cccc(F)c4)[nH]n3)ncnc2c1 [AZD2811]; conditions: max 1 µM
Summary of the method: as §1

SN-38 = compound: CCc1c2c(nc3ccc(O)cc13)-c1cc3c(c(=O)n1C2)COC(=O)[C@]3(O)CC [SN-38]; conditions: max 0.3 µM
Summary of the method: as §1

AZD4320 = compound: CN(CC[C@H](CSC1=CC=CC=C1)NC2=C(C=C(C=C2)S(=O)(=O)NC(=O)C3=CC=C(C=C3)N4CCC(CC4)[C@H](C5=CC=CC=C5C6=CC=C(C=C6)Cl)O)S(=O)(=O)C(F)(F)F)CCO [AZD4320]; conditions: max 1 µM
Summary of the method: as §1

Alisertib = compound: COc1cc(Nc2ncc3c(n2)-c2ccc(Cl)cc2C(c2c(F)cccc2OC)=NC3)ccc1C(=O)O [Alisertib]; conditions: max 10 µM
Summary of the method: as §1

Gefitinib = compound: COc1cc2ncnc(Nc3ccc(F)c(Cl)c3)c2cc1OCCCN1CCOCC1 [Gefitinib]; conditions: max 10 µM
Summary of the method: as §1

Prexasertib = compound: COc1cccc(OCCCN)c1-c1cc(Nc2cnc(C#N)cn2)n[nH]1 [Prexasertib]; conditions: max 1 µM
Summary of the method: as §1

Doxorubicin = compound: COc1cccc2c1C(=O)c1c(O)c3c(c(O)c1C2=O)C[C@@](O)(C(=O)CO)C[C@@H]3O[C@H]1C[C@H](N)[C@H](O)[C@H](C)O1 [Doxorubicin]; conditions: max 1 µM
Summary of the method: as §1

AZD5153 = compound: COc1nnc2ccc(N3CCC(c4ccc(OCCN5CCN(C)C(=O)[C@H]5C)cc4)CC3)nn12 [AZD5153]; conditions: max 1 µM
Summary of the method: as §1

Lapatinib = compound: CS(=O)(=O)CCNCc1ccc(-c2ccc3ncnc(Nc4ccc(OCc5cccc(F)c5)c(Cl)c4)c3c2)o1 [Lapatinib]; conditions: max 10 µM
Summary of the method: as §1

AZD8186 = compound: C[C@@H](Nc1cc(F)cc(F)c1)c1cc(C(=O)N(C)C)cc2c(=O)cc(N3CCOCC3)oc12 [AZD8186]; conditions: max 3 µM
Summary of the method: as §1

Crizotinib = compound: C[C@@H](Oc1cc(-c2cnn(C3CCNCC3)c2)cnc1N)c1c(Cl)ccc(F)c1Cl [Crizotinib]; conditions: max 10 µM
Summary of the method: as §1

Savolitinib = compound: C[C@@H](c1ccc2nccn2c1)n1nnc2ncc(-c3cnn(C)c3)nc21 [Savolitinib]; conditions: max 1 µM
Summary of the method: as §1

AZD6738 = compound: C[C@@H]1COCCN1C2=NC(=NC(=C2)C3(CC3)[S@](=N)(=O)C)C4=C5C=CNC5=NC=C4 [AZD6738]; conditions: max 10 µM
Summary of the method: as §1

AZD5991 = compound: Cc1c2c(nn1C)CSCc1cc(n(C)n1)CSc1cc(c3ccccc3c1)OCCCc1c(C(=O)O)n(C)c3c-2c(Cl)ccc13 [AZD5991]; conditions: max 1 µM
Summary of the method: as §1

AZD7648 = compound: Cc1cc2ncnn2cc1Nc1ncc2c(n1)n(C1CCOCC1)c(=O)n2C [AZD7648]; conditions: max 10 µM
Summary of the method: as §1

Taselisib = compound: Cc1nc(-c2cn3c(n2)-c2ccc(-c4cnn(C(C)(C)C(N)=O)c4)cc2OCC3)n(C(C)C)n1 [Taselisib]; conditions: max 10 µM
Summary of the method: as §1

Selumetinib = compound: Cn1cnc2c(F)c(Nc3ccc(Br)cc3Cl)c(C(=O)NOCCO)cc21 [Selumetinib]; conditions: max 10 µM
Summary of the method: as §1

Cell Line | IC50, cell viability 72 h (Capivasertib; max 3 µM) | IC50, cell viability 72 h (AZD1775) | IC50, cell viability 72 h (AZD0156) | IC50, cell viability 72 h (Olaparib; max 3 µM) | IC50, cell viability 72 h (Capivasertib; max 10 µM) | IC50, cell viability 72 h (Trametinib) | IC50, cell viability 72 h (Palbociclib) | IC50, cell viability 72 h (AZD1390) | IC50, cell viability 72 h (Venetoclax) | IC50, cell viability 72 h (Dasatinib) | IC50, cell viability 72 h (SG3199) | IC50, cell viability 72 h (AZD2811) | IC50, cell viability 72 h (SN-38) | IC50, cell viability 72 h (AZD4320) | IC50, cell viability 72 h (Alisertib) | IC50, cell viability 72 h (Gefitinib) | IC50, cell viability 72 h (Prexasertib) | IC50, cell viability 72 h (Doxorubicin) | IC50, cell viability 72 h (AZD5153) | IC50, cell viability 72 h (Lapatinib) | IC50, cell viability 72 h (AZD8186) | IC50, cell viability 72 h (Crizotinib) | IC50, cell viability 72 h (Savolitinib) | IC50, cell viability 72 h (AZD6738) | IC50, cell viability 72 h (AZD5991) | IC50, cell viability 72 h (AZD7648) | IC50, cell viability 72 h (Taselisib) | IC50, cell viability 72 h (Selumetinib) | IC50, cell viability 72 h (Olaparib; max 10 µM)
BT-483 (Breast Carcinoma) | > 3 µM | > 3 µM | > 3 µM | > 3 µM | – | – | – | – | – | – | – | – | – | – | – | – | – | – | – | – | – | – | – | – | – | – | – | – | –
CAL-29 (Bladder Carcinoma) | – | 0.762 µM | > 3 µM | – | > 10 µM | > 1 µM | > 10 µM | > 0.3 µM | > 1 µM | > 2 µM | > 0.001 µM | > 1 µM | 0.0143 µM | > 1 µM | > 10 µM | > 10 µM | 0.0418 µM | > 1 µM | > 1 µM | > 10 µM | > 3 µM | > 10 µM | > 1 µM | 6.08 µM | > 1 µM | > 10 µM | 0.218 µM | > 10 µM | > 10 µM
CAS-1 (Glioblastoma) | – | 1.6 µM | > 3 µM | – | 7.05 µM | 0.465 µM | > 10 µM | > 0.3 µM | > 1 µM | 0.931 µM | > 0.001 µM | > 1 µM | 0.202 µM | > 1 µM | 4.13 µM | > 10 µM | 0.158 µM | > 1 µM | 0.345 µM | > 10 µM | > 3 µM | > 10 µM | > 1 µM | > 10 µM | > 1 µM | > 10 µM | > 10 µM | > 10 µM | > 10 µM
COLO-824 (Breast Carcinoma) | – | 0.868 µM | > 3 µM | – | 7.34 µM | > 1 µM | > 10 µM | > 0.3 µM | 0.214 µM | > 2 µM | > 0.001 µM | 0.0558 µM | > 0.3 µM | 0.0333 µM | 3.01 µM | > 10 µM | 0.0646 µM | > 1 µM | 0.233 µM | 7.96 µM | > 3 µM | 4.32 µM | > 1 µM | 5.51 µM | > 1 µM | > 10 µM | 2.46 µM | > 10 µM | > 10 µM
COR-L311 (Small Cell Lung Carcinoma) | – | 0.91 µM | > 3 µM | – | 3.02 µM | > 1 µM | > 10 µM | > 0.3 µM | 0.208 µM | > 2 µM | > 0.001 µM | 0.0754 µM | 0.00307 µM | 0.00192 µM | 1.51 µM | > 10 µM | 0.107 µM | 0.685 µM | 0.175 µM | > 10 µM | > 3 µM | 2.97 µM | > 1 µM | > 10 µM | > 1 µM | > 10 µM | 1.61 µM | > 10 µM | > 10 µM
GI-ME-N (Neuroblastoma) | – | 2.22 µM | > 3 µM | – | > 10 µM | > 1 µM | > 10 µM | > 0.3 µM | > 1 µM | > 2 µM | > 0.001 µM | > 1 µM | > 0.3 µM | > 1 µM | > 10 µM | > 10 µM | 0.731 µM | > 1 µM | > 1 µM | > 10 µM | > 3 µM | > 10 µM | > 1 µM | > 10 µM | > 1 µM | > 10 µM | > 10 µM | > 10 µM | > 10 µM
